Peptide text beside a SMILES is read from it.

Results on 7 molecules are retold here after patent US11224565B2, “N-acyldipeptide derivatives and their uses” (NeoStrata Company, Inc., priority 2011, dated 2022).

Assay type in all cases: in vivo, human
The test system of one assay is insect bites. The assay can be described thus: Topical application to insect bite lesions (itch, erythema, inflammation). The following applies: 10% (w/w) cream on insect bites of left arm. The procedure:
A subject, having intensive itch and erythema on their left arm from insect bites, topically applied 10% (w/w) N—Ac-L-Leu-Gly-NH2 cream as formulated in Example 3 on the involved lesions.
A subject had multiple lesions of insect bites (mosquitoes) over the face and arms with itch and inflammatory lesions of more than 1 cm in size. For testing purposes, the subject divided the lesions into three groups: the first group was treated with vehicle control, the second and third groups were treated with active compositions. The subject topically applied twice daily 0.5% (w/v) N—Ac-L-Val-L-Ala-NH2 solution in WEP442, pH 5.9 on the lesions of the second group, and 0.5% (w/v) N—Ac-L-Tyr-L-Tyr-NH2 solution in WEP442, pH 6.7 (Example 5) on the lesions of the third group. […] The lesions in the second and third groups also started to improve over the next few days. At the end of three days, while there was no discernible change in the lesions treated with vehicle control in the first group, the lesions in the second and third groups had 90-100% improvement with nearly complete disappearance of inflammatory lesions.
A subject had multiple lesions of chigger bites (grass mites) over the legs with intensive itch and red inflammatory lesions. The subject topically applied twice daily 0.5% (w/v) N—Ac-L-Val-L-Ala-NH2 solution in WEP442, pH 6.7 (Example 5) on the lesions. […] The lesions on the legs had 100% improvement as judged by clinical evaluation.
(§1) In another embodiment, the volunteer subject topically applied the test compositions containing N-acyldipeptide derivatives of the present invention on involved skin or lesions once or twice daily for several weeks or until the involved lesions completely cleared and clinically changed to normal skin. As a control study, the subject also topically applied a vehicle control composition on the involved skin or lesions twice daily for the same period.

Another assay has as its system Nerve disorders. The assay can be described thus: Summary of test results in volunteer subjects: nerve disorders. Particulars: efficacy grade. The source says: (§2) In one embodiment, a composition for topical application to test its therapeutic effect was formulated by dissolving a bioactive dipeptide derivative of the present invention in a solution prepared from 40 parts water, 40 parts ethanol and 20 parts propylene glycol by volume (WEP442). In another embodiment, a composition was formulated by dissolving a bioactive dipeptide derivative of the present invention in a non-aqueous solution prepared from 80 parts ethanol and 20 parts propylene glycol by volume (EP82). In yet another embodiment, a composition was formulated first by dissolving a bioactive dipeptide derivative of the present invention in a solution prepared from 80 parts water and 20 parts propylene glycol by volume (WP82), and the solution thus prepared was mixed with an oil-in-water emulsion or cream. In another embodiment, the volunteer subject topically applied the test compositions containing N-acyldipeptide derivatives of the present invention on involved skin or lesions once or twice daily for several weeks or until the involved lesions completely cleared and clinically changed to normal skin. As a control study, the subject also topically applied a vehicle control composition on the involved skin or lesions twice daily for the same period. In yet another embodiment, the volunteer subject topically applied once or twice daily the test compositions containing N-acyldipeptide derivatives of the present invention on the skin site above arthritic joints or painful muscles to provide therapeutic effects for the systemic disorders via topical administration. Some test results are summarized as follows. ND: Nerve disorders

Assay [1] deals with Deranged immune disorders and inflammation. Kind of assay: Summary of test results in volunteer subjects: deranged immune disorders and inflammation. Particulars: efficacy grade. The source says:
In one embodiment, a composition for topical application to test its therapeutic effect was formulated by dissolving a bioactive dipeptide derivative of the present invention in a solution prepared from 40 parts water, 40 parts ethanol and 20 parts propylene glycol by volume (WEP442). In another embodiment, a composition was formulated by dissolving a bioactive dipeptide derivative of the present invention in a non-aqueous solution prepared from 80 parts ethanol and 20 parts propylene glycol by volume (EP82). In yet another embodiment, a composition was formulated first by dissolving a bioactive dipeptide derivative of the present invention in a solution prepared from 80 parts water and 20 parts propylene glycol by volume (WP82), and the solution thus prepared was mixed with an oil-in-water emulsion or cream. In another embodiment, the volunteer subject topically applied the test compositions containing N-acyldipeptide derivatives of the present invention on involved skin or lesions once or twice daily for several weeks or until the involved lesions completely cleared and clinically changed to normal skin. As a control study, the subject also topically applied a vehicle control composition on the involved skin or lesions twice daily for the same period. In yet another embodiment, the volunteer subject topically applied once or twice daily the test compositions containing N-acyldipeptide derivatives of the present invention on the skin site above arthritic joints or painful muscles to provide therapeutic effects for the systemic disorders via topical administration. Some test results are summarized as follows. DI: Deranged immune disorders and inflammation

In another assay the test system is Disturbed keratinization. The assay can be described thus: Summary of test results in volunteer subjects: disturbed keratinization. The following applies: efficacy grade.
Description: as §2, with “DK: Disturbed keratinization” for “ND: Nerve disorders”

For assay [2], the system named is inflammation, dermatitis, or eczema lesions. Kind of assay: Topical application to chronic inflammation, dermatitis, eczema or allergic skin lesions, clinical evaluation.
Description: as §1

In assay [3] the test system is Aging related changes of skin, nail and hair. The assay can be described thus: Summary of test results in volunteer subjects: aging related changes. The following applies: efficacy grade.
Description: as §2, with “AG: Aging related changes of skin, nail and hair” for “ND: Nerve disorders”

The next assay has as its system forearm skin. Kind of assay: Skin thickness of forearm by micrometer calipers after topical application. The following applies: for increase in skin thickness of treated left forearm: 2% (w/v) in WEP442 topically twice daily, vehicle forearm no change. The procedure:
In one of the studies related to skin changes associated with aging, skin thickness was measured by micrometer calipers as follows. The skin was grasped with a 2×6 cm metal hinge; the internal faces of which were coated with emery cloth to prevent slippage, and manually squeezed to threshold subject discomfort. Combined thickness of two whole-skin layers including thickness of the two hinge leaves was measured with micrometer calipers. Thickness of the two hinge leaves was subtracted to determine the actual thickness of two whole-skin layers. Triplicate measurements on treated sites were done and an average number was used for calculation of the skin thickness. In other studies, test sites of skin 17 mm in diameter were used, the circular sites were marked with permanent ink. Intervening control sites were also 17 mm in diameter. Thickness of skin of all sites was measured directly by means of an electronic digital caliper. In this instance the jaws of the caliper were opened to 17 mm, applied with pressure to the skin sites and then closed to firm tightness. Thickness of skin was then read off the screen of the calipers. Measurements of all sites were made in triplicates.

As for `CC(=O)N[C@@H](CC(C)C)C(=O)NCC(N)=O` [N-Ac-L-Leu-Gly-NH2] (Ac-Leu-Gly-NH2), the “itch after topical application” value in the assay on insect bites was “stopped within a few minutes”; in assay [2] (6% (w/w) oil-in-water emulsion twice daily, chronic eczema large body areas, person) it was “stopped within a few minutes”; in assay [2] (7% (w/w) oil-in-water emulsion twice daily, chronic eczema, person), “stopped within a few minutes”; in assay [2] (10% (w/w) cream twice daily, chronic eczema right leg, person), “stopped within a few minutes”. In the assay on insect bites, the “time the pruritus did not return” value amounted to 6 h. Besides, in the assay on insect bites (after 12 hours), the erythema and inflammation result is “improved”. Moreover, the ND in the assay with Nerve disorders is recorded as 4+ (4+: 95-100% Efficacy). In assay [1], the DI was 4+ (4+: 95-100% Efficacy). Also, in the assay with Disturbed keratinization, the DK is given as 3+ (3+: 75% Efficacy). Also, the “improvement as judged by clinical evaluation” value in assay [2] (6% (w/w) oil-in-water emulsion twice daily, chronic eczema large body areas, end of 10 days) is given as 95%; in assay [2] (7% (w/w) oil-in-water emulsion twice daily, chronic eczema, end of 10 days), 90-100%; in assay [2] (10% (w/w) cream twice daily, chronic eczema right leg, end of one week), 50%. The AG in assay [3] was 3+ (3+: 75% Efficacy).

In the case of `CC(=O)N[C@@H](Cc1ccc(O)cc1)C(=O)N[C@@H](Cc1ccc(O)cc1)C(=O)NN` [N-Ac-L-Tyr-L-Tyr-NHNH2] (HELM PEPTIDE1{[ac].Y.Y.[NN[*:1]]}$$$$V2.0), in the assay on forearm skin (1-3% (w/v) in WEP442 topically twice daily for 1-6 weeks as in the example, vehicle forearm still loose, thin and wrinkled), the “appearance of treated left forearm at end of treatment” value was “more firm, smooth, plump, and less wrinkled when lifted”. Further, the figures for the “increase in skin thickness of treated left forearm” value with forearm skin (after one week), in the assay with forearm skin (after three weeks) and in the assay with forearm skin (after two weeks) were 15%, 32% and 14%, respectively. Besides, in the assay on Nerve disorders, the ND is 2+ (2+: 50% Efficacy). The DI in assay [1] is 2+ (2+: 50% Efficacy). The DK in the assay with Disturbed keratinization is reported as 3+ (3+: 75% Efficacy). Moreover, in assay [2] (chronic eczema, twice daily, two weeks, 0.6% (w/w) N-Ac-L-Tyr-L-Tyr-NHNH2 cream on one set of lesions, 0.7% (w/w) N-Ac-L-Tyr-L-Tyr-NHNHAc cream on another), the “improvement as judged by clinical evaluation” value came to 75%. The “itch after topical application” value in assay [2] (chronic eczema, twice daily, 0.6% (w/w) N-Ac-L-Tyr-L-Tyr-NHNH2 cream on one set of lesions, 0.7% (w/w) N-Ac-L-Tyr-L-Tyr-NHNHAc cream on another) is listed as “stopped a few minutes after”. Besides, the AG in assay [3] was 3+ (3+: 75% Efficacy).

With `CCC(=O)N[C@@H](CC(C)C)C(=O)NCC(=O)O` [N-Pr-L-Leu-Gly-OH] (HELM PEPTIDE1{[CCC(=O)[*:2]].L.G}$$$$V2.0), the ND with Nerve disorders is 3+ (3+: 75% Efficacy). Moreover, in assay [1], the DI is 3+ (3+: 75% Efficacy). For the same molecule, the DK with Disturbed keratinization is given as 2+ (2+: 50% Efficacy). Also, the AG in assay [3] was 2+ (2+: 50% Efficacy).

As to `CCC(=O)N[C@H](C(=O)N[C@@H](C)C(=O)O)C(C)C` [N-Pr-L-Val-L-Ala-OH] (HELM PEPTIDE1{[CCC(=O)[*:2]].V.A}$$$$V2.0), in the assay on Nerve disorders, the ND is 4+ (4+: 95-100% Efficacy). The DI in assay [1] is 3+ (3+: 75% Efficacy). In the assay on Disturbed keratinization, the DK is listed as 2+ (2+: 50% Efficacy). In addition, the AG in assay [3] is listed as 2+ (2+: 50% Efficacy).

On to `NC(=O)CNC(=O)[C@H](Cc1ccc(O)cc1)NC(=O)OCc1ccccc1` [N-Z-L-Tyr-Gly-NH2], for which the ND in the assay with Nerve disorders is listed as 2+ (2+: 50% Efficacy). For the same molecule, the DI in assay [1] is given as 2+ (2+: 50% Efficacy). The DK in the assay with Disturbed keratinization is reported as 2+ (2+: 50% Efficacy). Also, the AG in assay [3] is 2+ (2+: 50% Efficacy).

For N,N′-diAc-βAla-L-His-NH2, the ND in the assay on Nerve disorders is given as 2+ (2+: 50% Efficacy). Moreover, the DI in assay [1] was 2+ (2+: 50% Efficacy). Besides, the DK in the assay with Disturbed keratinization was 2+ (2+: 50% Efficacy). Besides, the AG in assay [3] is given as 2+ (2+: 50% Efficacy).

Take N-Ac-L-Tyr-L-Hpg-NH2: the ND with Nerve disorders was 2+ (2+: 50% Efficacy). Besides, the DI in assay [1] was 2+ (2+: 50% Efficacy). In addition, the DK in the assay with Disturbed keratinization is 2+ (2+: 50% Efficacy). In addition, the AG in assay [3] was 2+ (2+: 50% Efficacy).
